These results are taken from article PMC6522510 (Nature Communications, 2019).

SMILES strings stand for the structures.

Common to all, as to assay: cells
Set-up in all cases: species or system AML cell lines (8); Secondary HTS, 10-point dose-response in triplicate, Cell Titer Glo viability, four-parameter fit EC50
A general note: ATP-based viability assays read luminescence as a measure of living cells.

The test system of experiment [1] is U937. Conditions: Homo sapiens, U-937, 72 h, read-out: U937.
Experiment [2] deals with MOLM-13. The note with it: Homo sapiens, MOLM-13, 72 h, read-out: MOLM-13.
The test system of experiment [3] is ML-2. The note with it: Homo sapiens, ML-2, 72 h, read-out: ML-2.
In experiment [4] the test system is CMK. Conditions: Homo sapiens, CMK, 72 h, read-out: CMK.
Experiment [5] concerns CHRF288-11. Conditions: 72 h, read-out: CHRF288-11.
In experiment [6] the test system is M07e. Conditions: M-07e, 72 h, read-out: M07e.
Experiment [7] deals with MV4-11. The note with it: Homo sapiens, MV4-11, 72 h, read-out: MV4-11.
The test system of experiment [8] is CMS. The note with it: 72 h, read-out: CMS.

For `CC(C)NCCCn1c(Sc2cc3c(cc2I)OCO3)nc2c(N)ncnc21` [SJ000821568, PU-H71], the EC50 in experiment [1] is more than 10 µM; in experiment [2], 0.019 µM; in experiment [3], 0.082 µM; in experiment [4] it was 0.024 µM; in experiment [5], 0.17 µM; in experiment [6], more than 10 µM. The EC50 in experiment [7] worked out at 0.023 µM; in experiment [8], 0.18 µM.

Consider `Cc1cc(I)ccc1Nc1c(C(=O)NOCC2CC2)cc(F)c(F)c1F` [SJ000821584, PD 198306], for which the EC50 in experiment [1], in experiment [2], in experiment [3], in experiment [4], in experiment [5] and in experiment [6] was more than 10 µM throughout. Also, the EC50 in experiment [7] and in experiment [8] was more than 10 µM each time.

For `CNC(=O)c1c(F)cccc1Nc1nc(Nc2cc3c(ccn3C(=O)CN(C)C)cc2OC)nc2[nH]ccc12` [SJ000821585, GSK1838705A], the EC50 was 6.2 µM in experiment [1]; more than 10 µM in experiment [2]; more than 10 µM in experiment [3]; 5.8 µM in experiment [4]; more than 10 µM in experiment [5]; more than 10 µM in experiment [6]. In addition, the EC50 in experiment [7] and in experiment [8] was more than 10 µM each time.

As for `CCOc1cc(N2CCC(O)CC2)ccc1Nc1ncc2c(n1)N(C)c1ccccc1C(=O)N2C` [SJ000821586, XMD 8-92], the EC50 is more than 10 µM in experiment [1]; 9.3 µM in experiment [2]; more than 10 µM in experiment [3]; 2 µM in experiment [4]; more than 10 µM in experiment [5]; more than 10 µM in experiment [6]. In addition, the EC50 in experiment [7] is 3.2 µM; in experiment [8], more than 10 µM.

With `COC(=O)[C@H](CC(C)C)NC(=O)c1ccc(NC[C@@H](N)CS)cc1-c1cccc2ccccc12` [SJ000821624, GGTI 298], the EC50 in experiment [1] is 6.5 µM; in experiment [2], 6.4 µM; in experiment [3], more than 10 µM; in experiment [4] it was more than 10 µM; in experiment [5], more than 10 µM; in experiment [6], more than 10 µM. Further, the results for the EC50 in experiment [7] and in experiment [8] were 6.4 µM and more than 10 µM, respectively.

`CCCCNc1ncc2c(-c3ccc(CN4CCN(C)CC4)cc3)cn(C3CCC(O)CC3)c2n1` (stereo not shown) [SJ000821849, UNC2025A]: the EC50 in experiment [1] is 8.1 µM; in experiment [2], 0.021 µM; in experiment [3], 5 µM; in experiment [4], 4.6 µM; in experiment [5], 6.4 µM; in experiment [6] it was 8.2 µM. In addition, the EC50 was 0.001 µM in experiment [7] and more than 10 µM in experiment [8].

For `CNC(=O)c1ccccc1Nc1nc(Nc2ccc(N3CCOCC3)cc2OC)ncc1Cl` [SJ000822451, NVP-TAE226], the EC50 was 4.5 µM in experiment [1]; 0.7 µM in experiment [2]; 2.5 µM in experiment [3]; 0.2 µM in experiment [4]; 9.8 µM in experiment [5]; 7.6 µM in experiment [6]. The EC50 in experiment [7] and in experiment [8] was more than 10 µM in each case.

As to `CC(N[C@H]1C[C@@H]1c1ccccc1)c1ccc2c(c1)OCCO2` (stereo partly shown) [SJ000832930, LSD1-C76], the EC50 in experiment [1], in experiment [2], in experiment [3], in experiment [4], in experiment [5] and in experiment [6] was more than 10 µM throughout. For the same compound, the EC50 in experiment [7] is 0.001 µM; in experiment [8], more than 10 µM.

With `COc1ccc2nc3n[nH]c(C)c3c(NCCOCCO)c2c1` [SJ000832935, SCH 51344], the EC50 in experiment [1], in experiment [2], in experiment [3], in experiment [4], in experiment [5] and in experiment [6] was more than 10 µM throughout. Further, the EC50 in experiment [7] and in experiment [8] was more than 10 µM each time.

`O=C(CCCCCCNC(=O)c1cnc(N(c2ccccc2)c2ccccc2)nc1)NO` [SJ000833835, ROCILINOSTAT]: the EC50 in experiment [1] is 10 µM; in experiment [2], more than 10 µM; in experiment [3], more than 10 µM; in experiment [4], 9.1 µM; in experiment [5], more than 10 µM; in experiment [6] it was 2.7 µM. In addition, the EC50 in experiment [7] and in experiment [8] was more than 10 µM each time.

Consider `COc1ccc(Cn2ccc3ccc(C(=O)NO)cc32)cc1` [SJ000833836, PCI 34051], for which the EC50 in experiment [1], in experiment [2], in experiment [3], in experiment [4], in experiment [5] and in experiment [6] was more than 10 µM in each case. Also, the EC50 in experiment [7] was more than 10 µM; in experiment [8], 6.8 µM.

With `O=C(NCC1(c2nc(-c3ccccc3)cs2)CCOCC1)c1cccc(-c2noc(C(F)(F)F)n2)c1` [SJ000833838, TMP269], the EC50 is more than 10 µM in experiment [1]; more than 10 µM in experiment [2]; more than 10 µM in experiment [3]; more than 10 µM in experiment [4]; more than 10 µM in experiment [5]; 0.19 µM in experiment [6]. For the same compound, the EC50 in experiment [7] and in experiment [8] was more than 10 µM each time.

As for `Cc1ccc(C(=O)c2cc(/C=C/C(=O)NO)n(C)c2)cc1` [SJ000833840, MC 1293], the EC50 was more than 10 µM in experiment [1]; more than 10 µM in experiment [2]; more than 10 µM in experiment [3]; 8.7 µM in experiment [4]; more than 10 µM in experiment [5]; 0.45 µM in experiment [6]. Besides, the EC50 in experiment [7] and in experiment [8] was more than 10 µM throughout.

For `C[C@@H]1COCCN1c1cc(C2(S(C)(=O)=O)CC2)nc(-c2cccc3[nH]ccc23)n1` [SJ000833844, AZ-20], the EC50 in experiment [1] is 4.7 µM; in experiment [2], more than 10 µM; in experiment [3], 0.031 µM; in experiment [4] it was more than 10 µM; in experiment [5], 2.5 µM; in experiment [6], 0.2 µM. The EC50 was more than 10 µM in experiment [7] and 0.6 µM in experiment [8].

On to `CC(C)(C#N)c1ccc(N2C(=O)OCc3cnc4ccc(-c5cnc6ccccc6c5)cc4c32)cc1` [SJ000833848, ETP-46464], for which the EC50 in experiment [1] was more than 10 µM; in experiment [2] it was more than 10 µM; in experiment [3], 3.6 µM; in experiment [4], 0.73 µM; in experiment [5], 8.3 µM; in experiment [6], more than 10 µM. Further, the EC50 in experiment [7] was more than 10 µM; in experiment [8], 5.2 µM.

Consider `O=C(CCN1CCN(C(=O)OCc2cc(Cl)cc(Cl)c2)CC1)c1ccc2[nH]c(=O)oc2c1` [SJ000833851, PF-8380], for which the EC50 in experiment [1] is more than 10 µM; in experiment [2], 0.0024 µM; in experiment [3] it was more than 10 µM; in experiment [4] it was more than 10 µM; in experiment [5], more than 10 µM; in experiment [6], more than 10 µM. In addition, the EC50 in experiment [7] and in experiment [8] was more than 10 µM in each case.

For the compound `Cc1noc(-c2ccc(-c3ccc(CC(=O)O)cc3)cc2)c1NC(=O)O[C@H](C)c1ccccc1` [SJ000833854, AM-095], the EC50 in experiment [1] was more than 10 µM; in experiment [2], 0.0068 µM; in experiment [3] it was more than 10 µM; in experiment [4] it was more than 10 µM; in experiment [5], more than 10 µM; in experiment [6] it was more than 10 µM. Also, the EC50 in experiment [7] and in experiment [8] was more than 10 µM throughout.
